This assay addresses T1, monoamine oxidase B (MAO-B) (Homo sapiens, UniProt P27338).
T1 construct: gene MAOB; Human recombinant MAO-B (Sigma, M7441)
T1 sequence (P27338 2-520): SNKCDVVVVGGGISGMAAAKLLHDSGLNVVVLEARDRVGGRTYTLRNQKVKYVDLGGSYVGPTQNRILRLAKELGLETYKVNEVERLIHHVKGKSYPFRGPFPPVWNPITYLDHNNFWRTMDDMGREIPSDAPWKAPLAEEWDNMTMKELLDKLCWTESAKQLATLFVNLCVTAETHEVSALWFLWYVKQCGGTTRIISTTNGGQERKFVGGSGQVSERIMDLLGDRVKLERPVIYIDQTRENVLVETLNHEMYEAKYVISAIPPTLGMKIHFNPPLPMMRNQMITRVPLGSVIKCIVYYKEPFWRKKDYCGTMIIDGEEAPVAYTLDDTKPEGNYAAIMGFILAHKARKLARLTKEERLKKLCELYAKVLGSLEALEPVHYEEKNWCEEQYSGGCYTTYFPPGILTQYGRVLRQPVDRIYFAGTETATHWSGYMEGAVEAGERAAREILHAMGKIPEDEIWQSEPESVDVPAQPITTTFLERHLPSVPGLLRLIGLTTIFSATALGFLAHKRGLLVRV
The assay is described as follows: in vitro MAO-B enzyme activity assay with recombinant human enzyme. The format is biochemical.

As a reminder, the IC50 is the midpoint of a concentration-inhibition curve.

Read-outs that look alike come from different tables or passages of the source.

For the compound `O=c1cc(-c2ccccc2)oc2cc(O)c(O)c(O)c12` [baicalein], the IC50 worked out at 21 µM.
In the case of `O=C(O)[C@H]1O[C@@H](Oc2cc3oc(-c4ccccc4)cc(=O)c3c(O)c2O)[C@H](O)[C@@H](O)[C@@H]1O` [baicalin], the IC50 (read-out: IC50) is 6.26 µM.
As to `COc1c(O)cc(O)c2c(=O)cc(-c3ccccc3)oc12` [wogonin], the IC50 worked out at 79.2 µM.
